Results as given in patent US12157736B2, “Spiro-lactam NMDA modulators and methods of using same” (Tenacia Biotechnology (Hong Kong) Co., Limited, priority 2016, dated 2024).

What was measured:
NMDAR2B = molecular target: T1, NMDAR2B (Homo sapiens, UniProt Q13224); experiment: NMDAR agonist assay, [3H]MK-801 binding, NMDAR2B expressing HEK cell membranes; type: biochemical; conditions: 50 μM glutamate; for Emax: read-out: NMDAR2B: % maximal [3H]MK-801 binding relative to 1 mM glycine; for EC50: read-out: NMDAR2B log EC50 (converted)
T1 construct: expressed in transfected cells; host or cells: HEK cells (membrane extract)
Method: (§1) Assays were conducted as described by Moskal et al., “GLYX-13: a monoclonal antibody-derived peptide that acts as an N-methyl-D-aspartate receptor modulator,” Neuropharmacology, 49, 1077-87, 2005. These studies were designed to determine if the test compounds act to facilitate NMDAR activation in NMDAR2A, NMDAR2B, NMDAR2C or NMDAR2D expressing HEK cell membranes as measured by increases in [^3H]MK-801 binding.
(§2) In the assay, 300 μg of NMDAR expressing HEK cell membrane extract protein was preincubated for 15 minutes at 25° C. in the presence of saturating concentrations of glutamate (50 μM) and varying concentrations of test compound (1×10^−15M−1×10^−7M), or 1 mM glycine. Following the addition of […] of [^3H]MK-801 (22.5 Ci/mmol), reactions were again incubated for 15 minutes at 25° C. (nonequilibrium conditions). Bound and free [^3H]MK-801 were separated via rapid filtration using a Brandel apparatus.
(§3) In analyzing the data, the DPM (disintegrations per minute) of [^3H]MK-801 remaining on the filter were measured for each concentration of test compound or for 1 mM glycine. The DPM values for each concentration of a ligand (N=2) were averaged. The baseline value was determined from the best fit curve of the DPM values modeled using the GraphPad program and the log(agonist) vs. response (three parameters) algorithm was then subtracted from all points in the dataset. The % maximal [3H]MK-801 binding was then calculated relative to that of 1 mM glycine: all baseline subtracted DPM values were divided by the average value for 1 mM glycine. The EC50 and % maximal activity were then obtained from the best fit curve of the % maximal [3H]MK-801 binding data modelled using the GraphPad program and the log(agonist) vs. response (three parameters) algorithm.
(§4) The tables below summarize the results for the wild type […] NMDAR2A, NMDAR2B, NMDAR2C, and NMDAR2D, and whether the compound is not an agonist (−), is an agonist (+), or is a strong agonist (++), where column A is based on the % maximal [3H]MK-801 binding relative to 1 mM glycine (−=0; <100%=+; and >100%=++); and column B is based on log EC50 values (0=−; ≥1×10^−9 M (e.g., −8)=+; and <1×10^−9 M (e.g., −10)=++).

NMDAR2A = molecular target: T2, NMDAR2A (Homo sapiens, UniProt Q12879); experiment: NMDAR agonist assay, [3H]MK-801 binding, NMDAR2A expressing HEK cell membranes; type: biochemical; conditions: 50 μM glutamate; for EC50: read-out: NMDAR2A: log EC50 (converted); for Emax: read-out: NMDAR2A: % maximal [3H]MK-801 binding relative to 1 mM glycine
T2 construct: expressed in transfected cells; host or cells: HEK cells (membrane extract)
Method: as §1, §2, §3, §4

T2 sequence (Q12879 23-1464, species assumed, other chains not shown): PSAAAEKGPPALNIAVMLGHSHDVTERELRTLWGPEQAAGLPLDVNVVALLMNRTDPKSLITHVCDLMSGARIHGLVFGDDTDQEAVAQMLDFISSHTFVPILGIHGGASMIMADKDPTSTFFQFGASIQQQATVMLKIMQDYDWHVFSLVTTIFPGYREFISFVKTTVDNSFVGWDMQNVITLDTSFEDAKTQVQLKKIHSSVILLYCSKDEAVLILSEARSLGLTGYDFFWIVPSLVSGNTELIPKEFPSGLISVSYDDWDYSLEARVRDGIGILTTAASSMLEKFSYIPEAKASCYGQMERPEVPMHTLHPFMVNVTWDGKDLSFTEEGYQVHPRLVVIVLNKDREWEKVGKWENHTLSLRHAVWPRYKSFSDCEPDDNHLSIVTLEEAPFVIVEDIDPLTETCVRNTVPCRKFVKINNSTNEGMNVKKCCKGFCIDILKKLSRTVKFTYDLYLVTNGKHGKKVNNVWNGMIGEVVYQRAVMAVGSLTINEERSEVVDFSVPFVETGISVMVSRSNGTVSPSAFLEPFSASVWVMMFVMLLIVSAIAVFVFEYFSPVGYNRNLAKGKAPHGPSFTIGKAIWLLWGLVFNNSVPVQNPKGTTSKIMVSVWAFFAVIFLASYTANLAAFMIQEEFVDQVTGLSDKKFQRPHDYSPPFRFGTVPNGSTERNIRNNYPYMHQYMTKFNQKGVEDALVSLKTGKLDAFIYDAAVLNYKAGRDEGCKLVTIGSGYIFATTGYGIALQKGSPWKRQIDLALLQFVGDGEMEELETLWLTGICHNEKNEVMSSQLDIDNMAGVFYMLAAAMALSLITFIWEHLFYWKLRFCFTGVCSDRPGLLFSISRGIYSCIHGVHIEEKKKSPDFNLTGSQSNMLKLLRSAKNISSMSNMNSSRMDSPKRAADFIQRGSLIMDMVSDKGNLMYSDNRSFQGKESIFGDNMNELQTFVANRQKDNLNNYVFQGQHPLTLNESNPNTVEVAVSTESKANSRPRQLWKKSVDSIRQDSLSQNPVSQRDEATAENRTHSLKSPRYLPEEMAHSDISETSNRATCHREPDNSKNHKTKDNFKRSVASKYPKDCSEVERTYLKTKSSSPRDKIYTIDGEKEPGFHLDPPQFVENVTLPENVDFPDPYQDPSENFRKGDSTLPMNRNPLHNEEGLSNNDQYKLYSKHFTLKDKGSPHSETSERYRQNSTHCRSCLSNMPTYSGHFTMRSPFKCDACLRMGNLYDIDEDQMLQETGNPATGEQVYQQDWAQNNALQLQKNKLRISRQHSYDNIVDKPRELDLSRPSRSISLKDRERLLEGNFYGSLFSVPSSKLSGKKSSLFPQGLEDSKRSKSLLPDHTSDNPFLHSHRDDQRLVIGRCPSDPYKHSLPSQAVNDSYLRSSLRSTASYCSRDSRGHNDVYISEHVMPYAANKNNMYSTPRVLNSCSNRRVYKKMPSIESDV
T1 sequence (Q13224 27-1484, species assumed, other chains not shown): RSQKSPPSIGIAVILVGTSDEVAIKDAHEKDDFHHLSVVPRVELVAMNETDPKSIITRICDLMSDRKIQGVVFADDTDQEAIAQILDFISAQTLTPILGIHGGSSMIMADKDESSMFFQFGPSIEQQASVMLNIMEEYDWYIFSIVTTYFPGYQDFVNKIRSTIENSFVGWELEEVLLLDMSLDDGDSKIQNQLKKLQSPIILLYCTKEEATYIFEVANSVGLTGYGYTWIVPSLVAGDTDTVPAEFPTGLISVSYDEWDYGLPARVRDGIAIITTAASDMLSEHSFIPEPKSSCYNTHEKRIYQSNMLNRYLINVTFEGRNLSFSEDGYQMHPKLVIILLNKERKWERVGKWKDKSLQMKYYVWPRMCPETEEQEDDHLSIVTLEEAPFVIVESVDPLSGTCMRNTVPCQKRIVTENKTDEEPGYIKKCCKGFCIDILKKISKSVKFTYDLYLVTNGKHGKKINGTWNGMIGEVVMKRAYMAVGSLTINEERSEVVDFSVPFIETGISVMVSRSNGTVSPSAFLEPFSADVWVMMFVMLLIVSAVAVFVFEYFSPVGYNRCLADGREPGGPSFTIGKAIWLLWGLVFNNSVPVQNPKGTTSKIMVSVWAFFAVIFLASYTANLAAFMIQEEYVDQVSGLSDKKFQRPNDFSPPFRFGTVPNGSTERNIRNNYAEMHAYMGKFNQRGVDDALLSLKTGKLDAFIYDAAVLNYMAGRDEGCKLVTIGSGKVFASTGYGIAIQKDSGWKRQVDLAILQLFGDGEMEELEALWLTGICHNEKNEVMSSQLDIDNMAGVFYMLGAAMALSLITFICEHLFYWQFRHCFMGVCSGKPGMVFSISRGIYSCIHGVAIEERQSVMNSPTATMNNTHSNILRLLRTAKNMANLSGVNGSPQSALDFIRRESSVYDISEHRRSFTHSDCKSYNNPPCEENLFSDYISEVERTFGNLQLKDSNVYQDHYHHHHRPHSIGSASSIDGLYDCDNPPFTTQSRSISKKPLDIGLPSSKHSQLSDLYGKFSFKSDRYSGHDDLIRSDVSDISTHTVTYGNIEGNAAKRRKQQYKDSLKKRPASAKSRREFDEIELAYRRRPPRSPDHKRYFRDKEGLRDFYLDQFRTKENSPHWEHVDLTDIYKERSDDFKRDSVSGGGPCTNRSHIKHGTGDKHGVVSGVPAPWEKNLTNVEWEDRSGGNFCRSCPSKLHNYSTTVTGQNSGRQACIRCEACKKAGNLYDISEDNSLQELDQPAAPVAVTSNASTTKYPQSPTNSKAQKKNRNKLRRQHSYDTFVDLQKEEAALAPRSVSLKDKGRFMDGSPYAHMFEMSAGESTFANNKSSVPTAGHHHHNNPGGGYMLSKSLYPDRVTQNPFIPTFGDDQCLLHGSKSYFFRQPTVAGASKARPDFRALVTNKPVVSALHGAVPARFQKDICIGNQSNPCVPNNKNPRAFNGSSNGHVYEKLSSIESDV

Row | EC50 (NMDAR2B) | EC50 (NMDAR2A) | NMDAR2B: % maximal [3H]MK-801 binding relative to 1 mM glycine (NMDAR2B) | SMILES | other results
1 |  |  |  | CN1CC2(CCNC(=O)C2)C1=O (single isomer, unassigned) [DH, 2-methyl-2,7-diazaspiro[3.5]nonane-1,6-dione] | Emax (NMDAR2B): > 100%
2 | > 100 nM |  |  | CC1CC(=O)N(c2ccc(F)cc2)C12CN([C@H](C(N)=O)[C@@H](C)O)C2=O (single isomer, unassigned) [DK] | 
3 |  | > 100 nM | + (<100%=+) | CC1CC(=O)N(c2ccc(F)cc2)C12CN(Cc1ccccc1)C2=O (single isomer, unassigned) [BX, 2-benzyl-5-(4-fluorophenyl)-8-methyl-2,5-diazaspiro[3.4]octane-1,6-dione] | 
4 | > 100 nM | > 100 nM | − (−=0) | C[C@@H](O)[C@@H](C(=O)NCc1ccccc1)N1CC2(CCNC(=O)C2)C1=O (single isomer, unassigned) [CA] | 
5 |  |  |  | COc1ccc(CN2CC3(CCN(C)C(=O)C3)C2=O)cc1 (single isomer, unassigned) [CJ, 2-(4-methoxybenzyl)-7-methyl-2,7-diazaspiro[3.5]nonane-1,6-dione] | Emax (NMDAR2B): > 100%
6 |  |  | + (<100%=+) | CC1CC(=O)N(c2ccc(F)cc2)C12CN(CC(N)=O)C2=O (single isomer, unassigned) [CF, 2-(5-(4-fluorophenyl)-8-methyl-1,6-dioxo-2,5-diazaspiro[3.4]octan-2-yl)acetamide] | NMDAR2A: % maximal [3H]MK-801 binding relative to 1 mM glycine (NMDAR2A): − (−=0)
7 | > 100 nM | > 100 nM |  | COc1ccc(CN2CC3(CCNC(=S)C3)C2=O)cc1 (single isomer, unassigned) [CM, 2-(4-methoxybenzyl)-6-thioxo-2,7-diazaspiro[3.5]nonan-1-one] | 
8 |  |  | − (−=0) | CC1CC(=O)N(c2ccc(F)cc2)C12CN([C@H](C(N)=O)[C@@H](C)O)C2=O (single isomer, unassigned) [DL] | NMDAR2A: % maximal [3H]MK-801 binding relative to 1 mM glycine (NMDAR2A): + (<100%=+)
9 |  |  |  | NC(=O)CN1CC2(CCNC(=O)C2)C1=O (single isomer, unassigned) [DC, 2-(1,6-dioxo-2,7-diazaspiro[3.5]nonan-2-yl)acetamide] | Emax (NMDAR2A): < 100%
10 | > 100 nM |  |  | COc1ccc(CN2CC3(CCN(CC(C)C)C(=O)C3)C2=O)cc1 (single isomer, unassigned) [CT, 7-isobutyl-2-(4-methoxybenzyl)-2,7-diazaspiro[3.5]nonane-1,6-dione] | Emax (NMDAR2B): 0%
11 |  | > 100 nM |  | O=C1CC2(CCN1)CN(Cc1ccccc1)C2=O (single isomer, unassigned) [CU, 2-benzyl-2,7-diazaspiro[3.5]nonane-1,6-dione] | Emax (NMDAR2A): 0%
12 |  |  | + (<100%=+) | CN1CCC2(CC1=O)CN(Cc1ccccc1)C2=O (single isomer, unassigned) [CX, 2-benzyl-7-methyl-2,7-diazaspiro[3.5]nonane-1,6-dione] | NMDAR2A: % maximal [3H]MK-801 binding relative to 1 mM glycine (NMDAR2A): + (<100%=+)
13 |  | > 100 nM |  | NC(=O)CN1CC2(CCNC(=O)C2)C1=O (single isomer, unassigned) [DD, 2-(1,6-dioxo-2,7-diazaspiro[3.5]nonan-2-yl)acetamide] | Emax (NMDAR2A): 0%
14 | > 100 nM | > 100 nM | − (−=0) | CCN1CCC2(CC1=O)CN(Cc1ccc(OC)cc1)C2=O (single isomer, unassigned) [CK, 7-ethyl-2-(4-methoxybenzyl)-2,7-diazaspiro[3.5]nonane-1,6-dione] | NMDAR2A: % maximal [3H]MK-801 binding relative to 1 mM glycine (NMDAR2A): − (−=0)
15 | > 100 nM |  |  | COc1ccc(CN2CC3(CCNC(=S)C3)C2=S)cc1 (single isomer, unassigned) [CO, 2-(4-methoxybenzyl)-2,7-diazaspiro[3.5]nonane-1,6-dithione] | Emax (NMDAR2B): 0%
16 |  |  |  | COc1ccc(CN2CC3(CCN(CC(C)C)C(=O)C3)C2=O)cc1 (single isomer, unassigned) [CS, 7-isobutyl-2-(4-methoxybenzyl)-2,7-diazaspiro[3.5]nonane-1,6-dione] | Emax (NMDAR2B): > 100%
17 | > 100 nM |  | − (−=0) | CC1C(N)C(=O)N(C)C12CN(Cc1ccccc1)C2=O (single isomer, unassigned) [CH, 7-amino-2-benzyl-5,8-dimethyl-2,5-diazaspiro[3.4]octane-1,6-dione] | NMDAR2A: % maximal [3H]MK-801 binding relative to 1 mM glycine (NMDAR2A): − (−=0)
18 |  |  |  | O=C1CC2(CCN1)CN(Cc1ccccc1)C2=O (single isomer, unassigned) [CV, 2-benzyl-2,7-diazaspiro[3.5]nonane-1,6-dione] | Emax (NMDAR2A): < 100%
19 | > 100 nM | > 100 nM | − (−=0) | CC1CC(=O)N(c2ccc(F)cc2)C12CN(CC(N)=O)C2=O (single isomer, unassigned) [CE, 2-(5-(4-fluorophenyl)-8-methyl-1,6-dioxo-2,5-diazaspiro[3.4]octan-2-yl)acetamide] | 
20 | > 100 nM |  | − (−=0) | CC1CC(=O)N(c2ccc(F)cc2)C12CN(Cc1ccccc1)C2=O (single isomer, unassigned) [BY, 2-benzyl-5-(4-fluorophenyl)-8-methyl-2,5-diazaspiro[3.4]octane-1,6-dione] | NMDAR2A: % maximal [3H]MK-801 binding relative to 1 mM glycine (NMDAR2A): − (−=0)
21 |  | > 100 nM | + (<100%=+) | CC1C(N)C(=O)N(C)C12CN(Cc1ccccc1)C2=O (single isomer, unassigned) [CG, 7-amino-2-benzyl-5,8-dimethyl-2,5-diazaspiro[3.4]octane-1,6-dione] | 
22 |  |  |  | CC1CC(=O)N(C)C12CN(CC(N)=O)C2=O (single isomer, unassigned) [DI, 2-(5,8-dimethyl-1,6-dioxo-2,5-diazaspiro[3.4]octan-2-yl)acetamide] | Emax (NMDAR2A): < 100%
23 | > 100 nM |  |  | CN1CC2(CCNC(=O)C2)C1=O (single isomer, unassigned) [DG, 2-methyl-2,7-diazaspiro[3.5]nonane-1,6-dione] | Emax (NMDAR2B): 0%
24 | > 100 nM |  |  | CC1C(O)C(=O)N(C)C12CN(Cc1ccccc1)C2=O (single isomer, unassigned) [DM, 2-benzyl-7-hydroxy-5,8-dimethyl-2,5-diazaspiro[3.4]octane-1,6-dione] | 
25 |  |  |  | COc1ccc(CN2CC3(CCNC(=S)C3)C2=S)cc1 (single isomer, unassigned) [CP, 2-(4-methoxybenzyl)-2,7-diazaspiro[3.5]nonane-1,6-dithione] | Emax (NMDAR2B): < 100%
26 | > 100 nM |  |  | CCN1CCC2(CC1=O)CN(Cc1ccccc1)C2=O (single isomer, unassigned) [CY, 2-benzyl-7-ethyl-2,7-diazaspiro[3.5]nonane-1,6-dione] | 
27 |  |  | ++ (>100%=++) | CNC(=O)[C@H]([C@@H](C)O)N1CC2(CCNC(=O)C2)C1=O (single isomer, unassigned) [DB] | NMDAR2A: % maximal [3H]MK-801 binding relative to 1 mM glycine (NMDAR2A): − (−=0)
28 | > 100 nM | > 100 nM | − (−=0) | CNC(=O)[C@H]([C@@H](C)O)N1CC2(CCNC(=O)C2)C1=O (single isomer, unassigned) [DA] | 
29 |  | > 100 nM |  | CC1CC(=O)N(C)C12CN(CC(N)=O)C2=O (single isomer, unassigned) [DJ, 2-(5,8-dimethyl-1,6-dioxo-2,5-diazaspiro[3.4]octan-2-yl)acetamide] | Emax (NMDAR2A): 0%
30 |  |  |  | C[C@@H](O)[C@@H](C(=O)N(C)C)N1CC2(CCNC(=O)C2)C1=O (single isomer, unassigned) [CD] | Emax (NMDAR2A): < 100%
